Experimental data taken from patent US11739064B2, “HDAC inhibitors and therapeutic methods using the same” (THE BOARD OF TRUSTEES OF THE UNIVERSITY OF ILLINOIS, priority 2015, dated 2023).

Tests used:
HDAC2 = HDAC2 (Homo sapiens, UniProt Q92769); assay: In vitro HDAC inhibition assay, HDAC2; assay type: biochemical; details: NI = No inhibition at a concentration of 50 pM (footnote b); read-out: HDAC isoform IC50, HDAC2
Human HDAC1 = Human HDAC1 (Homo sapiens, UniProt Q13547); assay: In vitro HDAC inhibition assay, HDAC1; details: read-out: HDAC isoform IC50, HDAC1; NI = No inhibition at a concentration of 50 pM (footnote b)
BxPC-3 = assay: In vitro growth inhibition of pancreatic cancer cell lines (Table 3), BxPC-3; assay type: cell-based; details: Homo sapiens, 72 hours post-treatment, cell viability
Description: (§1) In Vitro growth inhibition of pancreatic cancer cell lines. Four of the present HDACIs were analyzed in the [3-(4,5-dimethylthiazol-2-yl)]-2,5-diphenyltetrazolium bromide (MTT) assay in four pancreatic cancer cell lines (Table 3).

HDAC3/NcoR2 complex = HDAC3/NcoR2 complex (Homo sapiens, UniProt O15379); assay: In vitro HDAC inhibition assay, HDAC3; assay type: biochemical; details: NI = No inhibition at a concentration of 50 pM (footnote b); read-out: HDAC isoform IC50, HDAC3
[1] = system: L3.6pl pancreatic cancer cells; assay: Apoptosis by Hoechst staining and PARP cleavage; assay type: cell-based; details: 10 μM, 24 hours after the initiation of treatment
Description: FIG. 3 contains photographs and Western immunoblots showing that HDAC inhibitors of present invention induce apoptosis on L3.6p1 pancreatic cancer cells. L3.6p1 pancreatic cancer cells were treated with 10 μM of compound 1, 2 or 4 for 24 hrs as indicated. Cells were collected and processed to Hoechst staining (upper panel) and cell lysates were prepared for Western immunoblotting (lower panel). 50 μg of proteins were separated by SDS-PAGE, transferred to PVDF membrane, and immunoblotted as indicated.

Human HDAC6 = target: T1, Human HDAC6 (Homo sapiens, UniProt Q9UBN7); assay: In vitro HDAC inhibition assay, HDAC6; assay type: biochemical; details: read-out: HDAC isoform IC50, HDAC6
T1 construct: Full length with N-terminal GST tag, MW=159 kDa; GST (N); host or cells: baculovirus expression system, Sf9 cells
T1 sequence (Q9UBN7 1-1215): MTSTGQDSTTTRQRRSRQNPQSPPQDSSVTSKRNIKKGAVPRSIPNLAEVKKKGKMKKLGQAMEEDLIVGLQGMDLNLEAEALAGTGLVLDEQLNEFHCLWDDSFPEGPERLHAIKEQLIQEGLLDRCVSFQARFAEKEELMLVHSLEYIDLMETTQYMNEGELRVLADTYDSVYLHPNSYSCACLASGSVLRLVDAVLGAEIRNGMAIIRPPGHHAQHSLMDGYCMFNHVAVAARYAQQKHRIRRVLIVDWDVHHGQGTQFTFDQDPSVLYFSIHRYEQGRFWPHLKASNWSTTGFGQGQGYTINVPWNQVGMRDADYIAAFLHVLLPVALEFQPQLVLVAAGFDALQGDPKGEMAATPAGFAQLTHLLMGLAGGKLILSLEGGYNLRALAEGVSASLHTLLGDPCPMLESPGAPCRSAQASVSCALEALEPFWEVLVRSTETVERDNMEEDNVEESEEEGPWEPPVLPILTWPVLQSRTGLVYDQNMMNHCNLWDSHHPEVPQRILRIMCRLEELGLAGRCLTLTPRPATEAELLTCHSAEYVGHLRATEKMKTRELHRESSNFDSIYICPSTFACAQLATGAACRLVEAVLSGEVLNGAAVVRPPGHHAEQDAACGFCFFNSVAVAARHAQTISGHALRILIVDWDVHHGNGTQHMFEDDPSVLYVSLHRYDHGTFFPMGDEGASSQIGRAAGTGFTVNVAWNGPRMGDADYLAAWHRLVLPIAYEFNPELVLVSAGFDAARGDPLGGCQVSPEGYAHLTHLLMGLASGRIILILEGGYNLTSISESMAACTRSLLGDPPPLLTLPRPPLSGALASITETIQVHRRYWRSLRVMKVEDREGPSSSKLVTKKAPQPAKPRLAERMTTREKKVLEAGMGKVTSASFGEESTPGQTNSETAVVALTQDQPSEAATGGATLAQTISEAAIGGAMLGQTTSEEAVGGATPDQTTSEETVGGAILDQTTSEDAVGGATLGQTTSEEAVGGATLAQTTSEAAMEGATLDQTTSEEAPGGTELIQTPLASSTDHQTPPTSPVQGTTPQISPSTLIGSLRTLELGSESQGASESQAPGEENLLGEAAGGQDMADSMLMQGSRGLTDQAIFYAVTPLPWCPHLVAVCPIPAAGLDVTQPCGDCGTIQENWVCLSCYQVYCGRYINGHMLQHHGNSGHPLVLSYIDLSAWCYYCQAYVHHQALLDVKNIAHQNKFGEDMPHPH

L3.6pl = assay: In vitro growth inhibition (GI), MTS cell proliferation assay (Table 5), L3.6pl; assay type: cell-based; details: Homo sapiens, 72 hours post-treatment
BxPC3 = assay: In vitro growth inhibition (GI), MTS cell proliferation assay (Table 5), BxPC3; assay type: cell-based; details: Homo sapiens, BXPC-3, 72 hours post-treatment
HDAC10 = target: T2, HDAC10 (Homo sapiens, UniProt Q969S8); assay: In vitro HDAC inhibition assay, HDAC10; assay type: biochemical; details: NI = No inhibition at a concentration of 50 pM (footnote b); read-out: HDAC isoform IC50, HDAC10
T2 sequence (Q969S8 1-669): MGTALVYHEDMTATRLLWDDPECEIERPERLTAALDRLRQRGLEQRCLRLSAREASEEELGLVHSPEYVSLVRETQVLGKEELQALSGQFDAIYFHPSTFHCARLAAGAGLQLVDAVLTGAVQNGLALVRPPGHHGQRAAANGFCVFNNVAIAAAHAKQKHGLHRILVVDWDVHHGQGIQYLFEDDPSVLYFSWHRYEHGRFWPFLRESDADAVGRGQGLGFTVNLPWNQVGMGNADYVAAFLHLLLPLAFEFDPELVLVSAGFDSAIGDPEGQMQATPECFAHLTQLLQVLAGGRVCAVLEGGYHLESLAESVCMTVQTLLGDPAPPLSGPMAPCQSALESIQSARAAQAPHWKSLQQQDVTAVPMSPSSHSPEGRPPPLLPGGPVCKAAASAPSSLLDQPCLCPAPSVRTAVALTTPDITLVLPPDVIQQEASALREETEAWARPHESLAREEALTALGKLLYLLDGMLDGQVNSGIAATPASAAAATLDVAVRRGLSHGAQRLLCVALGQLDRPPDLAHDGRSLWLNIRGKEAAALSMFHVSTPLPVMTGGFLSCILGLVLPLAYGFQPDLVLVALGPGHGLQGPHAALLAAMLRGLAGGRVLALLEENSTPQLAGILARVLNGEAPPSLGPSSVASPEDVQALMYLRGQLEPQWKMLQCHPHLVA

Mia PaCa-2 = assay: In vitro growth inhibition of pancreatic cancer cell lines (Table 3), Mia PaCa-2; assay type: cell-based; details: Homo sapiens, 72 hours post-treatment, cell viability
Description: as §1

PANC1 = assay: In vitro growth inhibition of pancreatic cancer cell lines (Table 3), PANC1; assay type: cell-based; details: Homo sapiens, PANC-1; 72 hours post-treatment, cell viability
Description: as §1

Panc 04.03 = assay: In vitro growth inhibition of pancreatic cancer cell lines (Table 3), Panc 04.03; assay type: cell-based; details: Homo sapiens, 72 hours post-treatment, cell viability
Description: as §1

PANC1 cells [2] = assay: Scratch-wound cell migration assay; assay type: cell-based; design: key to Inhibition of cell migration, 24 h / Inhibition of cell migration, 48 h: Level of inhibition (high to low): +++, ++ or +; Level of inhibition (high to low): +++, ++ or +; Level of inhibition (high to low): +++, ++ or +; no inhibition: −; details: for Inhibition of cell migration, 24 h: PANC1, 24 h post wounding; for Inhibition of cell migration, 48 h: PANC1, 48 h post wounding
Description: FIG. 2 contains photographs of PANC1 cells treated with present compounds 9 and 6 taken 24 and 48 hours (post wounding) after a scratch was made through a confluent layer of cells; and
PANC1 Cell migration and effect on T and NK Cells. The effect of HDAC6 inhibition on cell migration and cellular cytotoxicity was evaluated. […] Thus, these HDAC6-selective inhibitors could function well to block metastasis. However, in contrast to the effect observed on cell migration, none of the compounds tested affected CD8+ T cell or natural killer (NK) cell-mediated cytotoxicity, despite the ability of the compounds to substantially increase the levels of acetyl-tubulin in these cell lines.

PANC1 cells [3] = assay: Cell cycle analysis; assay type: cell-based; details: FIG. 1B, accumulation in the G2/M phase
From the text: This finding is consistent with cell cycle data, which indicate that treatment of pancreatic cancer cells with a present HDACIs results in an accumulation of cells in the G2/M phase of the cell cycle.

acetylated alpha-tubulin = assay: Accumulation of acetylated alpha-tubulin in pancreatic cancer cells; assay type: cell-based; details: FIG. 1A
From the text: Cell cycle and inhibition of alpha-tubulin deacetylation.

Chain of Human HDAC1 (Q13547 whole entry, canonical isoform): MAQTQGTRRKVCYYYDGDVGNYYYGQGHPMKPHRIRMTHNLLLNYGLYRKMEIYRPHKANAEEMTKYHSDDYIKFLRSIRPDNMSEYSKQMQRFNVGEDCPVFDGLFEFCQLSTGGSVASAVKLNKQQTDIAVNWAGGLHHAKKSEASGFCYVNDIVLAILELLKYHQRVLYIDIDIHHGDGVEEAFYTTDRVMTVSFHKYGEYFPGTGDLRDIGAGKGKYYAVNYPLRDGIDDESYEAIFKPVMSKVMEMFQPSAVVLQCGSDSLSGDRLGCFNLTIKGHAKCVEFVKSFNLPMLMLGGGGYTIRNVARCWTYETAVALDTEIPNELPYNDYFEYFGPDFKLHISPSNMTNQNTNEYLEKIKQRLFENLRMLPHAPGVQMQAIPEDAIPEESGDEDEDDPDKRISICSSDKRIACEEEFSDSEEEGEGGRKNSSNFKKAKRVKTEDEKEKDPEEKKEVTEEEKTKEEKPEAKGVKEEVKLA
Chain of HDAC3/NcoR2 complex (O15379 whole entry, canonical isoform): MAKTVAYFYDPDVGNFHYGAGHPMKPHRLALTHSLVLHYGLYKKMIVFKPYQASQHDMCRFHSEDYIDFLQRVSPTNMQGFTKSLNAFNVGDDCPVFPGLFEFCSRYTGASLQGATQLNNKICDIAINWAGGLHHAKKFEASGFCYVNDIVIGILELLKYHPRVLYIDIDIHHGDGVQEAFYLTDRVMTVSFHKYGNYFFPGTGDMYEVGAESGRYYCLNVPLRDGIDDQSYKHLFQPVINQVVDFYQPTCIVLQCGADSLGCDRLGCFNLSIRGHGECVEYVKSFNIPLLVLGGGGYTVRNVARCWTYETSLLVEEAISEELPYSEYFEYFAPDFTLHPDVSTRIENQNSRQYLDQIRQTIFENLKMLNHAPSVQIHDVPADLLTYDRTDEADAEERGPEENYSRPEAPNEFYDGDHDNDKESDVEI
Chain of HDAC3/NcoR2 complex (Q9Y618 395-489 partner limits assumed): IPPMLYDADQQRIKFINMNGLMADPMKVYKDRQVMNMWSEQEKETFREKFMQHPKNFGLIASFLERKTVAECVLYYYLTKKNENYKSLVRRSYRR
Chain of HDAC2 (Q92769 whole entry, canonical isoform): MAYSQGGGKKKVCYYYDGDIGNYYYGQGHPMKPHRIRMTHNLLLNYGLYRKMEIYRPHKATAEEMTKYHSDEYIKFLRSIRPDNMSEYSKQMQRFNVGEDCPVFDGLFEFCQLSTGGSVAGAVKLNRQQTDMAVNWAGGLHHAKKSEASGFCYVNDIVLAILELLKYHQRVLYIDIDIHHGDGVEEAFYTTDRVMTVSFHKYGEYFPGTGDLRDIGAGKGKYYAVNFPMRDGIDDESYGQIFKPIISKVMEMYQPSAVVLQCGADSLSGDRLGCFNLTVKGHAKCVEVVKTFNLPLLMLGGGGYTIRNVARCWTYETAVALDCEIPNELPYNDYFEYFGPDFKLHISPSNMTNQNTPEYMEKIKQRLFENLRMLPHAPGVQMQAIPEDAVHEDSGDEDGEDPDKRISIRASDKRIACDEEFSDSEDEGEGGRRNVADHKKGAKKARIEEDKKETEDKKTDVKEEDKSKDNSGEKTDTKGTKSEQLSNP

IC50 (HDAC2)	IC50 (Human HDAC1)	IC50 (BxPC-3)	IC50 (HDAC3/NcoR2 complex)	IC50 (Human HDAC6)	GI50 (BxPC3)	IC50 (HDAC10)	IC50 (Mia PaCa-2)	IC50 (PANC1)	IC50 (Panc 04.03)	SMILES	Induction of apoptosis (Hoechst staining and PARP cleavage) [1]	GI50 (L3.6pl)	Inhibition of cell migration, 24 h (PANC1 cells [2])	Inhibition of cell migration, 48 h (PANC1 cells [2])	Cell cycle arrest (PANC1 cells [3])	Accumulation of acetylated alpha-tubulin (acetylated alpha-tubulin)
1140 nM	307 nM	1000 nM	320 nM	31 nM	1500 nM	407 nM				O=C(CCc1cc(C(=O)NO)no1)Nc1nc(-c2ccccc2)cs1 [Compound 1, 5-[2-(4-Phenyl-thiazol-2-ylcarbamoyl)-ethyl]-isoxazole-3-carboxylic acid hydroxyl amide]	effectively induced apoptosis	1300 nM				
1220 nM	351 nM	20800 nM	934 nM	81.8 nM	2300 nM	854 nM	1300 nM	2500 nM	48400 nM	O=C(CCCc1cc(C(=O)NO)no1)Nc1nc(-c2ccccc2)cs1 [Compound 2, 5-[3-(4-Phenyl-thiazol-2-ylcarbamoyl)-propyl]-isoxazole-3-carboxylic acid hydroxyamide]	effectively induced apoptosis	700 nM				
834 nM	200 nM	15200 nM	354 nM	48.9 nM	1700 nM	323 nM	1900 nM	11000 nM	13500 nM	CCOC(=O)Nc1ccc(-c2csc(NC(=O)CCCc3cc(C(=O)NO)no3)n2)cc1 [Compound 4, (4-{2-[4-(3-Hydroxycarbamoyl-isoxazol-5-yl)-butyrylamino]-thiazol-4-yl}-phenyl)-carbamic acid ethyl ester]	effectively induced apoptosis	1700 nM				
1380 nM	444 nM		789 nM	0.64 nM	7800 nM	2730 nM				CC(C)(C)OC(=O)Nc1cccc(-c2cc(C(=O)NCc3ccc(C(=O)NO)cc3)no2)c1 [Compound 14, {3-[3-(4-Hydroxycarbamoyl-benzylcarbamoyl)-isoxazol-5-yl]-phenyl}-carbamic acid tert-butyl ester]		> 50000 nM	−	−	cell cycle arrest	accumulation of acetylated alpha-tubulin
1900 nM	436 nM		135 nM	0.33 nM	8100 nM	3160 nM				CC(C)(C)OC(=O)Nc1ccc(-c2cc(C(=O)NCc3ccc(C(=O)NO)cc3)no2)cc1 [Compound 15, {4-[3-(4-Hydroxycarbamoyl-benzylcarbamoyl)-isoxazol-5-yl]-phenyl}-carbamic acid tert-butyl ester]		2000 nM			cell cycle arrest	accumulation of acetylated alpha-tubulin
1370 nM	495 nM		479 nM	0.6 nM	2400 nM	22200 nM				O=C(NO)c1ccc(CNC(=O)c2cc(Cn3c4ccccc4c4ccccc43)on2)cc1 [Compound 18, 5-Carbazol-9-ylmethyl-isoxazole-3-carboxylic acid 4-hydroxycarbamoyl-benzylamide]		1300 nM	+	−	cell cycle arrest	accumulation of acetylated alpha-tubulin
